Measurements taken from US10676468B2, “N-(3-heteroarylaryl)-4-arylarylcarboxamides and analogs as hedgehog pathway inhibitors and use thereof” (IMPACT Therapeutics, Inc., priority 2012, dated 2020).

What was measured:
Type in all cases: cell-based, mouse
[1] = system: Hedgehog Signaling Pathway; test: Gli-Luc reporter gene cell assay in C3H10T1/2/Gli-Luc cells stimulated with Shh; settings: 30 nM Shh, 24 hours, luciferase activity (RLU), read-out: IC50 values of compounds that inhibit Hh pathway
Procedure, shortened: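 IC50 from nonlinear fit of luciferase RLU versus log compound concentration. Stably transfected C3H10T1/2/Gli-Luc cells received a 7-point compound series alongside Shh (30 nM in the added medium) for 24 h at 37 °C in DMEM/10% FBS, then were lysed for luciferase readout.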

[2] = system: Hedgehog Signaling Pathway; test: SAG-induced differentiation of C3H10T1/2 cells into osteoblastic cells, intracellular alkaline phosphatase activity; settings: 1 μM SAG, 5 days, alkaline phosphatase activity (OD405), read-out: IC50 values of compounds that inhibit Hh pathway
Procedure, shortened: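 Mouse C3H10T1/2 cells were induced with SAG and exposed to compound (10 μM to 1 nM) for 5 days at 37 °C. Cells were lysed in 0.2% Triton, and alkaline phosphatase activity was read as OD405 over 30 min at 37 °C in pH 9.8 substrate buffer. IC50 came from a non-linear fit of background-subtracted OD405 against log concentration.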

[3] = system: Hedgehog Signaling Pathway; test: SHH-induced differentiation of C3H10T1/2 cells into osteoblastic cells, intracellular alkaline phosphatase activity; settings: 10 nM SHH-N, 5 days, alkaline phosphatase activity (OD405), read-out: IC50 values of compounds that inhibit Hh pathway
Procedure, shortened: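 Hedgehog pathway inhibition was taken as loss of SHH-driven osteoblastic differentiation. Test compound (10 nM–10 μM) plus SHH-N (10 nM) was applied to C3H10T1/2 cells for 5 days, then lysate phosphatase turnover was measured as the 30-min OD405 change at 37 °C. IC50 was fitted from activity versus log dose.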

Measured: IC50

N-(3-(5-(furan-2-yl)-1H-imidazol-2-yl)-4-chlorophenyl)-2-cyano-4-((3S,5R)-3,4,5-trimethylpiperazin-1-yl)benzamide [Example 147]
> 10 µM: all assays above
